Measurements from patent publication US12036241B2, “Compositions and methods for immune cell modulation in adoptive immunotherapies” (Fate Therapeutics, Inc., priority 2017, dated 2024).
“Also recorded” adds a separate entry of the source.

Experiments:
[1] = test system: T cells from healthy donors; test: Phenotypic profiling of T cells: CCR7, CD62L, CD27 surface markers by flow cytometry; type: cell-based, human; settings: FIG. 1A; for Tcm phenotype / effect on improving Tcm percentage: relative to vehicle
Source text: (§1) Fresh leukopaks (AllCells, Alameda, Calif.; Key Biologics, Memphis, Tenn.) were obtained from healthy donors, from which T cells were negatively selected using, for example, the EasySep Human T Cell Enrichment Kit (Stem Cell Technologies, Vancouver, Canada). The freshly isolated T cells were aliquoted and cryopreserved. On the day the assays were initiated, T cells were thawed and washed into X-Vivo 15 with supplements including IL-2 and pen/strep. Cells were dispensed into flat-bottom 384-well plates at 5×10^5 cells/ml with anti-CD3/Anti-CD28 beads. Individual compounds were added at a final concentration over the range of 10 μM to 10 nM to each well from column 3 to column 22 of each plate. Positive and negative controls were added to additional wells. Cells were incubated for about 6 days at 37 degrees with 5% CO2.
(§2) These studies were performed with T cells from healthy donors. Six days post-initiation of culture in the presence of anti-CD3/CD28 beads and compound addition, cells were harvested and stained with a fixable viability marker and fluorophore-conjugated antibodies: CD3, CD4, CD8, CD62L, CCR7, CD27, and Tim3 (BD Biosciences, San Jose, Calif.; and BioLegend, San Diego, Calif.). Fluorescent absolute counting beads (Spherotech, Lake Forest, IL) were added just prior to acquisition. Data acquisition was performed on a BD Fortessa™ X-20 (BD Biosciences) and data were analyzed using Treestar™ software (FlowJo, Ashland, Oreg.) and Spotfire (Tibco, Boston, Mass.). The expression of surface markers including CD62L, CCR7 and CD27 was used to identify naïve, stem cell memory, or central memory T cells. After the treatment with each of the compounds, the surface marker expression profile of the treated cells was evaluated along with characterization of cell proliferation and viability. Compounds were scored on expression of these individual Tcm markers as well as CD62L/CCR7 double positive cells. Gene expression scores were also obtained based on a panel of selected 12 genes (Table 2) that are maximally differentially expressed in CD8 Tcm cells relative to Tem.
The selected groups of compounds were assessed for their ability to skew T cell phenotype. […] Tcm is characterized herein by expression of both CCR7 and CD62L. The expression of either CD62L or CCR7 on T cells, as indicative of the desired T cell subsets, indicates a favorable functional characteristic for CAR-T cell therapy, and potentially other adoptive T cell therapies. The phenotypic studies use flow cytometry to measure the expression levels of these key surface proteins. Compounds were scored on expression of these individual Tcm markers as well as CD62L/CCR7 double positive cells (FIG. 1A). The scores in FIG. 1A were generated using the values obtained from four donors and the formula: Score=Normalized StDev over Vehicle×Significance (−log 10(p-value))+1 Scores for other graphs in this figure used the same formula.

[2] = test system: T cells from healthy donors; test: T cell viability and expansion after compound treatment; type: cell-based, human; settings: FIGS. 2A, 2B
Source text: as §1, §2
The phenotypic studies of the surface markers also included characterization of cell viability (FIG. 2A) and cell expansion (FIG. 2B). Scores for the graphs in FIGS. 2A-B were obtained using the formula: (Test value−minimum value)/(maximum value—minimum value)×10

CD8+ T cells = test: Cytokine production (IFNγ, IL-2, TNFα) after PMA/ionomycin, intracellular staining; type: cell-based, human; settings: PMA/ionomycin 4 h; for increase of IL-2 only subpopulation / increase of IFNγ+ only subpopulation: FIG. 3D
Description: The ability of T cells to respond to a variety of stimuli can be important to their function. The capacity of T cells to produce multiple cytokines in response to non-specific stimulation is a measure of their ‘multifunctionality’. To assess whether compounds affect this ‘multifunctional’ response, the ability of modulated T cells to produce interferon-γ (IFNγ), IL-2 and/or TNFα post-stimulation was determined. After CD8^+ T cell treatment with each of the selected compounds, cells were stimulated with a mixture of PMA/ionomycin for four hours. Following stimulation, cytokine production was measured using intracellular cytokine staining with antibodies recognizing these cytokines conjugated to different fluorophores. Fluorescence was measured using flow cytometry. Cell were defined as multifunctional if they produced two or more cytokines. The proportion of T cell subsets that produce specific single, double or triple cytokines was examined and compared to cells without modulation using a selected compound.
The ability of T cells to respond to a variety of stimuli is important for their function. The capacity of T cells to produce multiple cytokines in response to non-specific stimulation is a measure of their “multifunctionality”. To assess whether selected compounds affect this “multifunctional” response in view of their phenotype skewing effect on the treated cells, the ability of treated cells to produce interferon-γ (IFNγ), IL-2 and TNFα post-stimulation was determined. After treatment of CD8+ T cells with a compound from Table 1, cells were stimulated with a mixture of PMA/ionomycin for four hours. Following stimulation, cytokine production was measured by intracellular cytokine staining with fluorescence-emitting antibodies recognizing these cytokines conjugated to different fluorophores. Fluorescence was measured using flow cytometry. Cells were defined as multifunctional if they produced at least two of the three cytokines.

[3] = test system: irradiated K562 cells expressing CD19 and mKate2; test: Target cell killing by compound-treated CAR-T cells (IncuCyte); type: cell-based, human; settings: earlier time points, 24 to 65 hours; FIG. 4A
Description: An in vitro serial killing/re-stimulation assay, where the T cells treated by each compound were evaluated for various functions, including expansion and ability to kill tumor cells expressing the target antigen in vitro over multiple rounds of exposure to and withdrawal from antigen, was used as a model system. Such assays were carried out on cells treated with or without compounds, to assess the impact of individual compounds on cell function after repeated encounter with antigen, and cell expansion or persistence in such contexts.
An in vitro serial killing/re-stimulation assay, where CAR-T cells are tested for the ability to “clear” tumor cells in vitro over multiple rounds, can be used as a model to assess CAR-T expansion in the presence of tumor cells that express the antigen recognized by the CAR.
CD8 T cells were transduced with CARs and the cells were then cryopreserved. After thawing, the CAR-T cells were co-cultured with irradiated K562 tumor cells that express transgenic mKate2, a far-red fluorescent protein, and CD19, the antigen recognized by the CAR. […]
From this, the Area Under the Curve (AUC) for CAR-T cells treated with each compound can be calculated. […] To determine the effect of compound treatment on the killing ability of CAR-T cells, the AUC relative to target cells alone was determined.

Nalm-6 = test: Survival in Nalm6/NSG tumor model, suboptimal CAR-T dose; type: in vivo, NSG mice; settings: 3×10^5 CD19 CAR-T cells; FIG. 12A; listed as PI3K inhibitor
Description: (§3) Next, an in vivo assay was conducted to further characterize CAR-T cells produced in the presence of a PI3K inhibitor or a PDK1 inhibitor for tumor clearance. NSG mice were injected with a human leukemia line, Nalm-6. Four days later, mice were treated with a suboptimal dose (3×10^5) of freshly thawed CD19 CAR-T cells generated in the presence of vehicle (“DMSO” n=8), PI3K inhibitor (n=8), or PDK1 inhibitor (n=8). Some tumor bearing mice (n=2) also received expanded T cells that were not transduced with CAR (untransduced or “UNTD”). Negative control mice (n=2, “Unmanip”) received neither tumor nor CAR T cells. […] Seven days later, a suboptimal dose (2.5×10^5) of CD19 CAR-T cells produced in the presence of DMSO, PDK1 inhibitor, or PI3K inhibitor were transferred and the survival of the tumor bearing mice was monitored.

Raji = test: Survival in Raji/NSG tumor model, suboptimal CAR-T dose; type: in vivo, NSG mice; settings: 2.5×10^5 CD19 CAR-T cells; FIG. 12B; listed as PI3K inhibitor
Description: as §3

CAR-T cells = test: Serial restimulation of CAR-T cells produced with vehicle, PI3K inhibitor or PDK1 inhibitor; type: cell-based, human; settings: after antigen stimulation and withdrawal, and with coated beads; FIG. 10 legend
Description: At the end of the manufacturing process, the cells were frozen prior to subsequent functional analysis.
The ability of CAR-T cells produced in the presence of vehicle, PI3K inhibitor, or PDK1 inhibitor to expand through multiple rounds of antigen stimulation was measured in a serial restimulation assay, wherein cryopreserved CAR-T cells were thawed and co-cultured in the presence of antigen-bearing, irradiated target cells. Every 3 to 4 days the CAR-T and target cell ratios were readjusted to approximately 1:1. […] As an alternative to using antigen-bearing, irradiated target cells for CAR-T cell stimulation, cryopreserved CAR-T cells from three independent donors produced in the presence of vehicle, PI3Ki or PDKli were thawed in T cell growth media and subsequently assessed for expansion and survival, as measured by AUC (area under the curve) of the expansion over 14 days of stimulation with anti-CAR antibodies conjugated to beads.

CC(=O)OCC(=O)[C@@]12OC3(CCCC3)O[C@@H]1C[C@H]1[C@@H]3CCC4=CC(=O)C=C[C@]4(C)[C@@]3(F)[C@@H](O)C[C@@]12C [Compound 12, Amcinonide]
Tcm phenotype / effect on improving Tcm percentage [1]: minimal effect | cell viability and/or expansion relative to vehicle treatment [2]: enhance cell viability and/or expansion

C1=C/COCc2cc(ccc2OCCN2CCCC2)Nc2nccc(n2)-c2cccc(c2)COC/1 [Compound 17, Pacritinib]
increase of IL-2 only subpopulation (CD8+ T cells): about 11 fold

Cc1ccc(NC(=O)c2cccc(C(C)(C)C#N)c2)cc1Nc1ccc2ncn(C)c(=O)c2c1 [Compound 23, AZ628]
kinetics of target cell killing compared to vehicle [3]: slower than for vehicle | increase of IFNγ+ only subpopulation (CD8+ T cells): ~116 fold | increase of IL-2 only subpopulation (CD8+ T cells): ~18 fold

C[C@@H]1CCN(C(=O)CC#N)C[C@@H]1N(C)c1ncnc2[nH]ccc12 [Compound 18, Tofacitinib]
increase of IL-2 only subpopulation (CD8+ T cells): ~4 fold

Oc1cccc(-c2nc(N3CCOCC3)c3oc4ncccc4c3n2)c1 [PI103]
survival of tumor bearing mice compared to DMSO generated CAR-T cells (Nalm-6): prolonged survival; also recorded: improves survival | survival of tumor bearing mice compared to DMSO treated CAR-T cells (Raji): substantially improved; also recorded: improves survival | CAR-T cell expansion (CAR-T cells): improves CAR-T cell expansion

CC(C)(C)c1nc(-c2cccc(NS(=O)(=O)c3c(F)cccc3F)c2F)c(-c2ccnc(N)n2)s1 [Compound 24, Dabrafenib]
increase of the percentage of CCR7, CD62L double positive cells (Tcm) relative to vehicle ([1]; T cells, about 6 days with anti-CD3/CD28 beads, vs DMSO): about 10 fold

CC1(C)O[C@@H]2C[C@H]3[C@@H]4C[C@H](F)C5=CC(=O)C=C[C@]5(C)[C@H]4[C@@H](O)C[C@]3(C)[C@]2(C(=O)CO)O1 [Compound 10, Flunisolide]
Tcm phenotype / effect on improving Tcm percentage [1]: minimal effect | cell viability and/or expansion relative to vehicle treatment [2]: enhance cell viability and/or expansion

O=C1NCCN1CCN1CCC(c2cn(-c3ccc(F)cc3)c3ccc(Cl)cc23)CC1 [Compound 8, Sertindole]
Tcm phenotype / effect on improving Tcm percentage [1]: minimal effect | cell viability and/or expansion relative to vehicle treatment [2]: enhance cell viability and/or expansion

Cc1ccc(-c2ncc(Cl)cc2-c2ccc(S(C)(=O)=O)cc2)cn1 [Compound 7, Etoricoxib]
Tcm phenotype / effect on improving Tcm percentage [1]: minimal effect | cell viability and/or expansion relative to vehicle treatment [2]: enhance cell viability and/or expansion

CC(=O)OCC(=O)[C@@]1(O)[C@H](C)C[C@H]2[C@@H]3CCC4=CC(=O)C=C[C@]4(C)[C@@]3(F)[C@@H](O)C[C@@]21C [Compound 11, Dexamethasone Acetate]
Tcm phenotype / effect on improving Tcm percentage [1]: minimal effect | cell viability and/or expansion relative to vehicle treatment [2]: enhance cell viability and/or expansion

Cc1sc2c(c1C)C(c1ccc(Cl)cc1)=N[C@@H](CC(=O)Nc1ccc(O)cc1)c1nnc(C)n1-2 [Compound 1, OTX015]
increase of total multifunctional subpopulation (at least 2 cytokines) (CD8+ T cells; CD8+ T cells, vs vehicle): ~16 fold | increase of cells producing all three cytokines (CD8+ T cells; IFNγ, IL-2, TNFα): ~13 fold | increase of IFNγ+ only subpopulation (CD8+ T cells): about 33 fold
